According to patent publication US12553889B2, “Small molecules targeting the intrinsically disordered structural ensemble of α-synuclein protect against diverse α-synuclein mediated dysfunctions” (The Regents of the University of California, priority 2019, dated 2026):
“Also recorded” adds a separate entry of the source.

What was measured:
[1] = test system: αSyn; assay: αSyn split NanoBit luciferase (Nluc) oligomerization assay; format: biochemical, human; conditions: 100 μM compound, 10 μM of each tagged αSyn; for activity in NanoBit complementation αSyn oligomerization assay: full time-course
Description: Ten μM αSyn-LgBiT, 10 μM αSyn-SmBiT, and Hsp70 (at 0, 10, or 30 μM), 1 mM MgCl2 and 1 mM ADP were mixed in PBS at pH 7.4 and incubated at 37° C. in a thermal cycler (BioRad DNA Engine PTC-200). At 0, 3, 6, 12 and 24 hours. The NanoBit luciferase activity was quantified using a NanoFuel® GLOW Assay for Oplophorus Luciferases (NanoLight) according to the manufacturer's instructions and read on SpectraMax L Microplate Reader (Molecular Devices) with an 8 minute delay after the addition of substrate and 1 sec integration time reading each well. The luciferase activity was normalized to the reaction without Hsp70 at 24 hour time point.
• 1. αSyn-LgBiT or LgBiT is mixed with αSyn-SmBiT at 10 μM of each (PBS pH 7.4); • 2. Incubate at 37 degree for 24 hours in PCR machine; • 3. Take 10 μL samples at 0/3/6/12/24 hours; • 4. Luminescence measurement is done using Luminometor (with injector) using h-CTZ (40 uM), 2 sec delay, 3 sec integration. Protocol: • 1. αSyn-LgBiT (10 uM) and αSyn-SmBiT (10 uM) are mixed in PBS buffer (pH 7.4); • 2. The reaction mixture is incubated in 37° C. incubator either being shaken (1000 rpm) or still; • 3. Samples are taken from the reaction at 0/3/12/24/36/48/72/96/120/144 h for ThT and Nluc assays; NLuc Assay:
• 1. Mix fusion proteins in PBS buffer (pH 7.4) to create the following three master mixes:
• 2. Dispense 10 μL protein master mix into 384-well plate (Greiner, 781904) using Mantis; • Col 1 & 23: Positive control • Col & 24: Negative control • Col 3-22: Reactions • 3. […] Seal plates using sticky foil (E&K Scientific T790080); • 5. Incubate the sealed plates at 37° C. with heat blocks above and beneath the sealed plates, use dummy plates around the reaction plate, incubate at 37° C. incubator in room N401 for 0-24 h; Day 2. I. Prepare the Plates and Substrate • 6. Cool the plates at room temp for 30 min after 24-hour incubation; • 7. Spin the plates at 500×g for 1 min; • 8. Make substrate mix (NanoLight Cat #325), keep it in darkness; II. Prepare the Plate Reader • 9. Turn on SpectraMaxL, make sure the aperture is in the right position (96/384 well):
To change: Control>Change Aperture>Lift the top panel>Press down the button and turn it to the right position>Put the panel down • 10. Put the P-injector tube into the H2O bottle, wash the injector: Control>Prime P-injector for 30× injections • 11. Remove the P-injector and leave it in the air, then empty the injector: Control>Prime P-injector for 30× injections; • 12. Put the P-injector from the substrate tube, prime the injector: Control>Prime P-injector for 20× injections III. Read the Plates • 13. Nluc assay: • Sample vol: 10 μl (dispensed on day 1) • Substrate vol: 25 μl (NanoLight Cat #325)
The SpectraMaxL will do two rounds of reads, the first round will inject substrates, the second round will read entire 384-well plate and make sure the interval between inject and read for each well is exactly the same (in this protocol, the interval is 8 min exactly)

[2] = test system: A53T αSyn; assay: Dopaminergic neuron viability assay, A53T αSyn adenovirus transduced primary midbrain cultures; format: cell-based, rat
Description: Primary midbrain cultures were prepared and dopaminergic neuronal viability in the presence and absence of αSyn was assessed as previously described and repeated herein. Primary midbrain cultures were prepared from embryonic day 17 embryos of Sprague-Dawley rats using methods reviewed and approved by the Purdue Animal Care and Use Committee as described previously. After dissection, the cells were plated into a poly-L-lysine-treated 48-well plate at a density of 163,500 cells per well. Four days later, the cells were treated with cytosine arabinofuranoside (AraC) (20 μM) for 48 hours to inhibit the growth of glial cells. The cultures were used for measurements of dopaminergic neuron viability at 7 days in vitro. […] In order to determine the viability of dopaminergic neurons, MAP2- and TH-positive neurons were counted in 10 to 15 randomly chosen observation fields in a blinded manner using a Nikon TE2000-U inverted fluorescence microscope (Nikon Instruments, Melville NY) with a 20× objective. In the control conditions, and in conditions where the compound was neuroprotective, typically 500 to 1,300 MAP2-positive neurons were counted, a range that corresponds to 20 to 50 TH-positive neurons. The data were expressed as the ratio of the TH-positive neurons to the MAP2-positive neurons. […]

SMILES: CNC(=O)c1cc(O)ccc1N(C)C [Compound 581823, 2-dimethylamino-5-hydroxy-N-methylbenzamide]
- activity in NanoBit complementation αSyn oligomerization assay [1]: active

SMILES: CNC(=O)c1cc(O)ccc1O [Compound 583854, 2,5-dihydroxy-N-methylbenzamide]
- activity in NanoBit complementation αSyn oligomerization assay [1]: active

SMILES: CNC(=O)c1cc(O)ccc1N [Compound 576755, 2-amino-5-hydroxy-N-methylbenzamide]
- effect on A53T αSyn neurotoxicity (TH-positive/MAP2-positive neurons) ([2]; 10 μM): a trend towards a similar inhibitory effect
- effect on A53T αSyn neurotoxicity (TH-positive/MAP2-positive neurons) ([2]; 60 μM): suppressed A53T αSyn neurotoxicity; also recorded: alleviates loss of dopaminergic neurons
- activity in NanoBit complementation αSyn oligomerization assay [1]: active

SMILES: CNC(=O)c1cc(O)ccc1NC [Compound 581858, 2-methylamino-5-hydroxy-N-methylbenzamide]
- impact relative to 576755 in NanoBit complementation assay [1]: slightly less impact than compound 576755
- activity in NanoBit complementation αSyn oligomerization assay [1]: active
